Assay results from publication PMC5871776, “Opn5L1 is a retinal receptor that behaves as a reverse and self-regenerating photoreceptor” (Nature Communications, 2018).
Changes are numbered by the printed parent chain.

How the values were obtained:
[1] = biological target: T1, Opn5L1 bearing native N- and C- termini (Gallus gallus, UniProt B3XZF4, C170T); assay: absorption spectrum of purified pigment and HPLC of extracted retinal; format: binding; conditions: covalent (retinylidene Schiff base)
T1 construct: gene cOpn5L1; HEK293T, purified
T1 sequence (B3XZF4 1-441 C170T): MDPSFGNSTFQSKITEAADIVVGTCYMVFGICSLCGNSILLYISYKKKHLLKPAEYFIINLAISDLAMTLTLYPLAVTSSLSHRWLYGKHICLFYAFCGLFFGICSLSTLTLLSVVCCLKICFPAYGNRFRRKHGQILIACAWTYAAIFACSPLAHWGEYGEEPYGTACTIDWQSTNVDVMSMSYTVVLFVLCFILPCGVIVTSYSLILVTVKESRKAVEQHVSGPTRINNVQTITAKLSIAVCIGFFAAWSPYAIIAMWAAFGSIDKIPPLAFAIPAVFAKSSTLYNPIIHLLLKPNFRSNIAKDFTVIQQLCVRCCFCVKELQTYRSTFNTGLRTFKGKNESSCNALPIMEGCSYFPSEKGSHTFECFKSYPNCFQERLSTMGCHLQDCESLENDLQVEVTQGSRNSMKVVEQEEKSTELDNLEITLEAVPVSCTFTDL

Opn5L1NC [2] = biological target: T2, Opn5L1NC (Gallus gallus, UniProt B3XZF4, E159K/Q174K, form not given); assay: LC-MS of tryptic peptide with retinal oxime at Cys188; format: binding; conditions: covalent (light-induced thio-adduct at Cys188); hydroxylamine, irradiation >500 nm
T2 construct: gene cOpn5L1; HEK293T, purified in dodecyl maltoside
T2 sequence (B3XZF4 20-310 E159K/Q174K limits assumed): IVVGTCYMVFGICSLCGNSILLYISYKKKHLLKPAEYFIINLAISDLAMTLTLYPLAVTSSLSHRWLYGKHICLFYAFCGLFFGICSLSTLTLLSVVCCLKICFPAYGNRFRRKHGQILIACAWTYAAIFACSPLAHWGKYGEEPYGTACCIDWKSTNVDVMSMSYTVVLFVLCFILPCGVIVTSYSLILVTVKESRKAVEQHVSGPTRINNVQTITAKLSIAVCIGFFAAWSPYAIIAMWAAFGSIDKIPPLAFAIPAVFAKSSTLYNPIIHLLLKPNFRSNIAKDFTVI

Opn5L1NC [3] = biological target: T3, Opn5L1NC (Gallus gallus, UniProt B3XZF4, C170T, form not given); assay: absorption spectrum of purified pigment and HPLC of extracted retinal; format: binding; conditions: covalent (retinylidene Schiff base); retinal 5 μM added to the cell culture; pH 7.0, 10 °C
T3 construct: gene cOpn5L1; HEK293T, purified in dodecyl maltoside
T3 sequence (B3XZF4 20-310 C170T limits assumed): T2 sequence (B3XZF4 20-310 E159K/Q174K limits assumed) with K140E, C151T, K155Q

Opn5L1N = biological target: T4, Opn5L1N (Gallus gallus, UniProt B3XZF4); assay: […]GTPgammaS filter binding assay of Gi activation; format: biochemical; conditions: agonist; membrane fraction, 0.6 μM Gi, dark, pH 7.0, 25 °C; covalent (retinylidene Schiff base)
T4 construct: gene cOpn5L1; HEK293T membranes
T4 sequence (B3XZF4 20-441 limits assumed): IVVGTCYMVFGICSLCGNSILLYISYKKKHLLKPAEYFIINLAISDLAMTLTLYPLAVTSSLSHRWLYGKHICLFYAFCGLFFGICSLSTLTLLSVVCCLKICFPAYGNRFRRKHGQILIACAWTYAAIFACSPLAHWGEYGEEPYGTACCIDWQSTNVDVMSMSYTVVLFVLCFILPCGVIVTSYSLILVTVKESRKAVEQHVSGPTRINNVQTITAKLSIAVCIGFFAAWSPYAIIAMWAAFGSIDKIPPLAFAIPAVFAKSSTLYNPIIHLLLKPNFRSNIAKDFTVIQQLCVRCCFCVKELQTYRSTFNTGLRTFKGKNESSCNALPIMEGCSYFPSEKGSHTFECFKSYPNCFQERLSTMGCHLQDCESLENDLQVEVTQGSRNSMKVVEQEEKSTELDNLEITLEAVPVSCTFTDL

[4] = biological target: T5, Opn5L1 bearing native N- and C- termini (Gallus gallus, UniProt B3XZF4); assay: absorption spectrum of purified pigment and HPLC of extracted retinal; format: binding; conditions: covalent (retinylidene Schiff base)
T5 construct: gene cOpn5L1; HEK293T, purified
T5 sequence (B3XZF4 1-441): T1 sequence (B3XZF4 1-441 C170T) with T170C

Opn5L1NC [5] = biological target: T6, Opn5L1NC (Gallus gallus, UniProt B3XZF4); assay: as above; format: binding; conditions: covalent (retinylidene Schiff base); 10 μM retinal, 4 °C, 8 h, dark; pH 7.0
T6 construct: gene cOpn5L1; HEK293T, purified in dodecyl maltoside
T6 sequence (B3XZF4 20-310 limits assumed): T2 sequence (B3XZF4 20-310 E159K/Q174K limits assumed) with K140E, K155Q

## CC1=C(/C=C/C(C)=C/C=C/C(C)=C/C=O)C(C)(C)CCC1 [all-trans-retinal]
[1]
  absorption spectrum of purified pigment and HPLC of extracted retinal: verified the function of Cys188 in the mutant Opn5L1 bearing native N- and C- termini
Opn5L1NC [2]
  LC-MS of tryptic peptide with retinal oxime at Cys188: Light increased the amount of peptide with retinal oxime at the second cysteine
Opn5L1NC [3]
  absorption spectrum of purified pigment and HPLC of extracted retinal: the C188T mutant of Opn5L1NC showed an absorption maximum similar to that of WT
Opn5L1N
  EC50: 620 nM
[4]
  absorption spectrum of purified pigment and HPLC of extracted retinal: Opn5L1 bearing native N- and C- termini showed molecular characteristics indistinguishable
Opn5L1NC [5]
  absorption spectrum of purified pigment and HPLC of extracted retinal: we concluded that Opn5L1NC directly incorporates all-trans-retinal and not 11-cis-retinal
